Tests used:
H1975 Cells = experiment: In vitro cytotoxicity of predominant ADC metabolites, H1975; format: cell-based
Procedure: (§1) Assays were performed in flat bottom 96-well plates in triplicate for each data point. Test articles were first diluted in complete cell culture media using 5-fold dilution series and 100 μL were added into each well. The final concentrations typically ranged from 3×10^−8 M to 8×10^−14 M. The target cells were then added to the test articles at 1,500 to 3,000 cells per well in 100 μL of complete culture media. The mixtures were incubated at 37° C. in a humidified 5% CO2 incubator for 5 days. Viability of the remaining cells was determined by the WST-8 (Tetrazolium salt-8; 2-(2-methoxy-4-nitrophenyl)-3-(4-nitrophenyl)-5-(2,4-disulfophenyl)-2H-tetrazolium) based colorimetric assay using the Cell Counting Kit-8 (Dojindo Molecular Technologies, Inc., Rockville, Md.). The WST-8 is reduced by dehydrogenases in live cells to give a yellow-colored formazan product that is soluble in tissue culture media. […] The WST-8 signals were then measured using a microplate plate reader at optical density of 450 nm. The surviving fraction was calculated by dividing the value of each treated sample by the average value of untreated controls, and plotted against the test article concentrations in a semi-log plot for each treatment. IC50 values were determined using nonlinear regression (curve fit) with GraphPad Prism v5 program (GraphPad Software, La Jolla, Calif.). […]

H1703 Cells = experiment: In vitro cytotoxicity of predominant ADC metabolites, H1703; format: cell-based
Procedure: as §1

COLO704 Cells = experiment: In vitro cytotoxicity of predominant ADC metabolites, COLO704; format: cell-based
Procedure: as §1

FRα-expressing KB cells = experiment: In vitro metabolism study in KB cells; format: in vitro ADME; conditions: KB cells treated with saturating amount of 17c conjugate for 24 hours; UHPLC/HRMS
Procedure: FRα-expressing KB cells were treated with a saturating amount of 17c conjugate for 24 hours. Catabolite-containing media was incubated with 5 mM NEM to cap any free thiol present and then captured by pre-bound protein A-anti-maytansinoid antibody complex. The catabolites were released by acetone extraction, and analyzed by UHPLC/HRMS.

COc1cc2cc(c1Cl)N(C)C(=O)C[C@H](OC(=O)[C@H](C)N(C)C(=O)CCCSC)[C@]1(C)O[C@H]1[C@H](C)[C@@H]1C[C@@](O)(NC(=O)O1)[C@H](OC)/C=C/C=C(\C)C2 [metabolite 25b, DM-CO—(CH2)3-SMe]
IC50 (H1975 Cells): 5.6 pM | IC50 (H1703 Cells): 5.92 pM | IC50 (COLO704 Cells): 6.88 pM

COc1cc2cc(c1Cl)N(C)C(=O)C[C@H](OC(=O)[C@H](C)N(C)C(=O)CCCCCSC)[C@]1(C)O[C@H]1[C@H](C)[C@@H]1C[C@@](O)(NC(=O)O1)[C@H](OC)/C=C/C=C(\C)C2 [metabolite 25a, DM-CO—(CH2)5-SMe]
catabolites identified in cell culture media (FRα-expressing KB cells): major effluxed catabolites | IC50 (H1703 Cells): 2.27 pM | IC50 (COLO704 Cells): 3.04 pM
